Data reported in patent publication US20200371122A1, “BIOMARKER FOR SENESCENT CELLS” (Buck Institute for Research on Aging, priority 2017, published 2020).

Legend:
Format in all cases: cell-based, human
IL-6 secretion = assay: IL-6 ELISA on non-senescent cells treated with prostaglandins; details: 10 μM, 10 days
Experimental: Human fetal lung fibroblasts (IMR-90) were cultured in Dulbecco's modified eagle medium (DMEM) supplemented with 10% FBS and penicillin/streptomycin. LL 29 (AnHa) cells were obtained from the ATCC and growth to confluence using the ATCC protocol, but were subcultured as described for IMR-90 before initiation of all experiments. Quiescence was induced by replacing culture media with media containing 0.2% FBS. MCF-7 and MDA-MB-231 breast cancer cells were cultured in RPMI supplemented with 10% FBS and penicillin/streptomycin. All cells were cultured at 3% O2, and used between 25 and 40 population doublings. All cells were mycoplasma free.
3×10^4 cells in 12-well plates were treated as indicated in the text, and cultured in 0.5-1 ml serum-free DMEM for 24 hr. CM were collected and clarified at 2,000×g for 10 min. Supernatants were transferred to a tube; cells were trypsinized and counted. CM (2.5 μl) were analyzed by bead-based ELISAs (AlphaLISA, Perkin-Elmer) as instructed by the manufacturer and normalized to cell number.

SASP factors = assay: qPCR of SASP and PTGS mRNAs in non-senescent cells treated with eicosanoids; details: 10 μM
Experimental: RNA was extracted from cells or tissues using commercially available kits (Isolate II—Bioline for cells; Direct-zol—Zymo for tissues) according to the manufacturer's instructions. cDNA synthesis was performed using a High Capacity cDNA Reverse Transcription Kit (Thermo Fisher) according to the manufacturer's instructions. Quantitative PCR was performed on a LightCycler 480 II (Roche) using primers and probes designed for the Universal Probe Library. Primers and probes used for human transcripts were ACTB: 5′-CCAACCGCGAGAAGATGA (SEQ ID NO:1), 5′-TCCATCACGATGCCAGTG (SEQ ID NO:2), Probe #64; TUBA: 5′-cttcgtctccgccatcag (SEQ ID NO:3), 5′-ttgccaatctggacacca (SEQ ID NO:4), Probe #58; ALOX5: 5′-[…] (SEQ ID NO:5), 5′-[…] (SEQ ID NO:6), Probe #64; ALOX5AP: 5′-ggtctgcggggctacttt (SEQ ID NO:7), 5′-[…] (SEQ ID NO:8), Probe #18; ALOX12: 5′-[…] (SEQ ID NO:9), 5′-agccaggtcgtcaggag (SEQ ID NO:10), Probe #32; ALOX15: 5′-[…] (SEQ ID NO:11), 5′-[…] (SEQ ID NO:12), Probe #76; ALOX15B: 5′-[…] (SEQ ID NO:13), 5′-actgggaggcgaagaagg (SEQ ID NO:14), Probe #51; AKR1C1: 5′-catgcctgtcctgggattt (SEQ ID NO:15), 5′-[…] (SEQ ID NO:16), Probe #49; AKR1C2: 5′-ctatgcgcctgcagaggt (SEQ ID NO:17), 5′-[…] (SEQ ID NO:18), Probe #31; AKR1C3: 5′-[…] (SEQ ID NO:19), 5′-[…] (SEQ ID NO:20), Probe #78; CYSLTR2: 5′-[…] (SEQ ID NO:21), 5′-[…] (SEQ ID NO:22), Probe #18; DPEP1: 5′-gacgtcctgaggctggtg (SEQ ID NO:23), 5′-[…] (SEQ ID NO:24), Probe #9 (SEQ ID NO:25), ELOVL2: 5′-[…] (SEQ ID NO:26), 5′-[…] (SEQ ID NO:27), Probe #53; ELOVL4: 5′-catttggcccatggattc (SEQ ID NO:28), 5′-[…] (SEQ ID NO:29), Probe #31; ELOVL5: 5′-cccttccatgcgtccata (SEQ ID NO:30), 5′-[…] (SEQ ID NO:31), Probe #31; EPHX2: 5′-ttctgctggacaccctgaa (SEQ ID NO:32), 5′-[…] (SEQ ID NO:33), Probe #45; GPX4: 5′-ttcccgtgtaaccagttcg (SEQ ID NO:34), 5′-[…] (SEQ ID NO:35), Probe #36; LTA4H: 5′-ctgctctcacggtccagtc (SEQ ID NO:36), 5′-[…] (SEQ ID NO:37), Probe #64; LTBR2: 5′-[…] (SEQ ID NO:38), 5′-[…] (SEQ ID NO:39), Probe #33; LTC4S: 5′-[…] (SEQ ID NO:40), 5′-[…] (SEQ ID NO:41), Probe #18; PTGDS: 5′-[…] (SEQ ID NO:42), 5′-[…] […]

IMR-90 fibroblasts = assay: Induction of senescence in non-senescent cells by prostaglandins or 5-LOX pathway products (EdU, SA-B-gal, p21, immunoblot)
Experimental: RNA was extracted from cells or tissues using commercially available kits (Isolate II—Bioline for cells; Direct-zol—Zymo for tissues) according to the manufacturer's instructions. cDNA synthesis was performed using a High Capacity cDNA Reverse Transcription Kit (Thermo Fisher) according to the manufacturer's instructions. Quantitative PCR was performed on a LightCycler 480 II (Roche) using primers and probes designed for the Universal Probe Library. Primers and probes used for human transcripts were ACTB: 5′-CCAACCGCGAGAAGATGA (SEQ ID NO:1), 5′-TCCATCACGATGCCAGTG (SEQ ID NO:2), Probe #64; TUBA: 5′-cttcgtctccgccatcag (SEQ ID NO:3), 5′-ttgccaatctggacacca (SEQ ID NO:4), Probe #58; ALOX5: 5′-[…] (SEQ ID NO:5), 5′-[…] (SEQ ID NO:6), Probe #64; ALOX5AP: 5′-ggtctgcggggctacttt (SEQ ID NO:7), 5′-[…] (SEQ ID NO:8), Probe #18; ALOX12: 5′-[…] (SEQ ID NO:9), 5′-agccaggtcgtcaggag (SEQ ID NO:10), Probe #32; ALOX15: 5′-[…] (SEQ ID NO:11), 5′-[…] (SEQ ID NO:12), Probe #76; ALOX15B: 5′-[…] (SEQ ID NO:13), 5′-actgggaggcgaagaagg (SEQ ID NO:14), Probe #51; AKR1C1: 5′-catgcctgtcctgggattt (SEQ ID NO:15), 5′-[…] (SEQ ID NO:16), Probe #49; AKR1C2: 5′-ctatgcgcctgcagaggt (SEQ ID NO:17), 5′-[…] (SEQ ID NO:18), Probe #31; AKR1C3: 5′-[…] (SEQ ID NO:19), 5′-[…] (SEQ ID NO:20), Probe #78; CYSLTR2: 5′-[…] (SEQ ID NO:21), 5′-[…] (SEQ ID NO:22), Probe #18; DPEP1: 5′-gacgtcctgaggctggtg (SEQ ID NO:23), 5′-[…] (SEQ ID NO:24), Probe #9 (SEQ ID NO:25), ELOVL2: 5′-[…] (SEQ ID NO:26), 5′-[…] (SEQ ID NO:27), Probe #53; ELOVL4: 5′-catttggcccatggattc (SEQ ID NO:28), 5′-[…] (SEQ ID NO:29), Probe #31; ELOVL5: 5′-cccttccatgcgtccata (SEQ ID NO:30), 5′-[…] (SEQ ID NO:31), Probe #31; EPHX2: 5′-ttctgctggacaccctgaa (SEQ ID NO:32), 5′-[…] (SEQ ID NO:33), Probe #45; GPX4: 5′-ttcccgtgtaaccagttcg (SEQ ID NO:34), 5′-[…] (SEQ ID NO:35), Probe #36; LTA4H: 5′-ctgctctcacggtccagtc (SEQ ID NO:36), 5′-[…] (SEQ ID NO:37), Probe #64; LTBR2: 5′-[…] (SEQ ID NO:38), 5′-[…] (SEQ ID NO:39), Probe #33; LTC4S: 5′-[…] (SEQ ID NO:40), 5′-[…] (SEQ ID NO:41), Probe #18; PTGDS: 5′-[…] (SEQ ID NO:42), 5′-[…] (SEQ ID NO:43), Probe #36; PTGES: 5′-agagatgcctgcccacag (SEQ ID NO:44), 5′-tggccaccacgtacatctt (SEQ ID NO:45), Probe #4; PTGES2: 5′-[…] (SEQ ID NO:46), 5′-[…] (SEQ ID NO:47), Probe #49; PTGES3 (SEQ ID NO:48), 5′-[…] (SEQ ID NO:49), 5′-[…] (SEQ ID NO:50), Probe #48; PTGIS: 5′-[…] (SEQ ID NO:51), 5′-[…] (SEQ ID NO:52), Probe #45; PTGR1: 5′-atgatggggcagcaagtg (SEQ ID NO:53), 5′-cccatcagaaatggagtgc (SEQ ID NO:54), Probe #64; PTGS1: 5′-[…] (SEQ ID NO:55), 5′-gtggtggtccatgttcctg (SEQ ID NO:56), Probe #81; PTGS2: 5′-gatccccagggctcaaac (SEQ ID NO:57), 5′-[…] (SEQ ID NO:58), Probe #61; TBXAS1: 5′-[…] (SEQ ID NO:59), 5′-tgcctcccgtgtgaatct (SEQ ID NO:60), Probe #73; AREG: 5′-[…] (SEQ ID NO:61), 5′-[…] (SEQ ID NO:62), Probe #73; CCL2: 5′-AGTCTCTGCCGCCCTTCT (SEQ ID NO:63), 5′-GTGACTGGGGCATTGATTG (SEQ ID NO:64), Probe #40; CCL27: 5′-[…] (SEQ ID NO:65), 5′-gctgggtggcagtaggaat (SEQ ID NO:66), Probe #18; CXCL1: 5′-[…] (SEQ ID NO:67), 5′-[…] (SEQ ID NO:68), Probe #52; HGF: 5′-[…] (SEQ ID NO:69), 5′-[…] (SEQ ID NO:70), Probe #49; ILIA: 5′-[…] (SEQ ID NO:71), 5′-[…] (SEQ ID NO:72), Probe #6; IL1B: 5′-[…] (SEQ ID NO:73), 5′-[…] (SEQ ID NO:74), Probe #78; IL6: 5′-[…] (SEQ ID NO:75), 5′-gaaggcagcaggcaacac (SEQ ID NO:76), Probe #45; IL8: 5′-[…] (SEQ ID NO:77), 5′-atggttccttccggtggt (SEQ ID NO:78), Probe #72; IL10: 5′-[…] (SEQ ID NO:79), 5′-[…] (SEQ ID NO:80), Probe #67; MMP3: 5′-[…] (SEQ ID NO:81), 5′-[…] (SEQ ID NO:82), Probe #36; PDGFA: 5′-[…] (SEQ ID NO:83), 5′-[…] (SEQ ID NO:84), Probe #80; VEGF: 5′-[…] (SEQ ID NO:85), 5′-[…] (SEQ ID NO:86), Probe #50; P21WAF1(CDKN1A): 5′-[…]

[1] = system: IMR-90 fibroblasts depleted of p53 by shRNA; assay: Prostaglandin treatment of p53-depleted (shp53) IMR-90 fibroblasts (Ki67, cleaved caspase 3); details: shp53 cells, 3 days
Experimental: For EdU labeling, cells were cultured with EdU (10 μM) for 24 h, fixed in 4% buffered formalin for 10 min, washed in PBS, and permeabilized in 0.5% Triton X-100 for 30 min. Cells were treated as instructed by the manufacturer Life Technologies Cat #C10337). For immunofluorescence, cells were blocked in 10% normal goat serum for 30 min, washed, and incubated overnight in antibodies to Ki67 (Abcam) or cleaved caspase 3 (Cell Signaling). Cell were then washed, incubated in fluorescent secondary antibodies, and mounted using vectashield mounting medium with DAPI.

Row | Compound | IL-6 secretion (IL-6 secretion) | SASP factor mRNAs (SASP factors; for PGJ2 and 15d-PGJ2 most factors except VEGF and PDGF) | levels of LMNB1 and cellular HMGB1 (IMR-90 fibroblasts; 10 μM, 10 days) | p21 gene expression (IMR-90 fibroblasts; 10 μM, 10 days) | senescence-associated beta-galactosidase (IMR-90 fibroblasts; 10 μM, 10 days) | p21 protein accumulation (IMR-90 fibroblasts; 10 μM, 10 days, immunoblot) | p53 stabilization (IMR-90 fibroblasts; 10 μM, 10 days, immunoblot) | p53 phosphorylation or acetylation (IMR-90 fibroblasts; 10 μM, 10 days, western blot) | expression of MMP3 and secretion of IL-6 on removal of the prostaglandin (IMR-90 fibroblasts; release after 7 days at 10 μM) | apoptosis (positivity for cleaved caspase 3) [1] | continued cell division (Ki67 positivity) after loss of p53 [1] | PTGES mRNA (SASP factors) | cell size and proliferation once prostaglandin was removed (IMR-90 fibroblasts; 10 μM 7 days, then 10 days release)
1 | CCCCC[C@H](O)/C=C/[C@H]1C(=O)C=C[C@@H]1C/C=C\CCCC(=O)O [PGJ2] | highest induction | strongly induced | reduced levels | induced | induced | induced | stabilized | without increasing | reduced | underwent apoptosis | did not allow | – | –
2 | CCCCC[C@H](O)/C=C/[C@H]1[C@H](O)CC(=O)[C@@H]1C/C=C\CCCC(=O)O [PGE2, prostaglandin E2] | – | – | – | – | induced | – | – | – | – | – | – | elevated | became smaller and resumed proliferation
